Tests used:
recombinant human DPP7 = target: T1, recombinant human DPP7 (Homo sapiens, UniProt Q9UHL4); experiment: DPP7 inhibition, fluorogenic substrate Lys-Pro-AMC; format: biochemical; settings: recombinant human DPP7
T1 construct: purchased R&D Systems
Method in brief: (§1)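 Enzyme per reaction: 50 ng DPP9, 20 ng DPP8, 10 ng each DPP7 and PREP. Compounds were serially diluted (8 points, up to 0.5% DMSO) and incubated at 25 °C.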

DPP4 [1] = target: T2, DPP4 (Homo sapiens, UniProt P27487); experiment: DPP4 inhibition, fluorogenic substrate H-Gly-Pro-AMC; format: biochemical; parameters: purchased R&D Systems; settings: recombinant human DPP4
Target sequence in this assay (P27487 whole entry): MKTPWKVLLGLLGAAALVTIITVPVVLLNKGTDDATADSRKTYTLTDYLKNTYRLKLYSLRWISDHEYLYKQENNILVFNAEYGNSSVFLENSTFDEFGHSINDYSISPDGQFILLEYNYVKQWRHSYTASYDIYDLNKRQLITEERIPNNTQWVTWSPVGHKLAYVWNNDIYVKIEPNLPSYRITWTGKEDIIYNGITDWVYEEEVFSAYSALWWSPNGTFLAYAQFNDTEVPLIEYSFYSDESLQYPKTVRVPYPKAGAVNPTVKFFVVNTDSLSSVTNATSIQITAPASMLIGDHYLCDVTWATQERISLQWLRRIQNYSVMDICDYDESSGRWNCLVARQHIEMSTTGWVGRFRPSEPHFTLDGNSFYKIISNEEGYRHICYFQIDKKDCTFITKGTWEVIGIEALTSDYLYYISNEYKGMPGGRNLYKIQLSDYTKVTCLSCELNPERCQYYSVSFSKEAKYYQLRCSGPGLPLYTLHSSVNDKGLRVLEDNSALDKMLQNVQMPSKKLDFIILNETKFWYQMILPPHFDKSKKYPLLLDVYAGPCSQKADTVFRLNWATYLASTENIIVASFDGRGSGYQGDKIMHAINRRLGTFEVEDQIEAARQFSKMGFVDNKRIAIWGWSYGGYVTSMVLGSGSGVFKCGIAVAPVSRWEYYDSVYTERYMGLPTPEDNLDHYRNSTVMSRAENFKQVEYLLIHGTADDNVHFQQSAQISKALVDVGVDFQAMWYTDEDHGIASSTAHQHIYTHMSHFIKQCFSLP

recombinant human DPP9 = target: T3, recombinant human DPP9 (Homo sapiens, UniProt Q86TI2); experiment: DPP9 inhibition, fluorogenic substrate H-Gly-Pro-AMC; format: biochemical; settings: recombinant human DPP9
T3 construct: purchased R&D Systems
Method in brief: as §1

recombinant human PREP = target: T4, recombinant human PREP (Homo sapiens, UniProt P48147); experiment: PREP inhibition, fluorogenic substrate Z-Gly-Pro-AMC; format: biochemical; settings: Inhibitory Activity (IC50, nM) PREP, recombinant human PREP
T4 construct: purchased R&D System
T4 sequence (P48147 1-710): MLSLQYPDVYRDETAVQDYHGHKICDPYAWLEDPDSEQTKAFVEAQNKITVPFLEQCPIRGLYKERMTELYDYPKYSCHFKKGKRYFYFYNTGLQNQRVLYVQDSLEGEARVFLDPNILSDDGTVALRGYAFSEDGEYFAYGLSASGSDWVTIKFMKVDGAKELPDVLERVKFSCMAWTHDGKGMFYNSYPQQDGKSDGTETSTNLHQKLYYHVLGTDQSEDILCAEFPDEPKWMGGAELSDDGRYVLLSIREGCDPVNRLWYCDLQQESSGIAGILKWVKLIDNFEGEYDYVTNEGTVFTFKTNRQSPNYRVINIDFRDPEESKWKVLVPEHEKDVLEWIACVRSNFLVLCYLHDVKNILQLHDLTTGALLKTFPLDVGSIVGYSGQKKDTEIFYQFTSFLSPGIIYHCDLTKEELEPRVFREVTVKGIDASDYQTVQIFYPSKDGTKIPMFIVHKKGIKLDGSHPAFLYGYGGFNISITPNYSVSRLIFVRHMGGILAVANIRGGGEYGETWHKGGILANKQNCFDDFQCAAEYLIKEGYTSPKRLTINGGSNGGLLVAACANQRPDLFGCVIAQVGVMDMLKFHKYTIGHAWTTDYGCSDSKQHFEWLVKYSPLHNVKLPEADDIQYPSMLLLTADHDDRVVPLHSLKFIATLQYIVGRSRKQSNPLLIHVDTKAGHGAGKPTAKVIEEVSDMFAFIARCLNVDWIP
Method in brief: as §1

Recombinant human FAP = target: T5, Recombinant human FAP (Homo sapiens, UniProt Q12884); experiment: FAP FRET assay, FGF21-sequence FRET peptide substrate; format: biochemical; settings: FRET peptide with human FGF21 sequence, 6 μM, 37° C.
T5 construct: purchased R&D systems
T5 sequence (Q12884 1-760): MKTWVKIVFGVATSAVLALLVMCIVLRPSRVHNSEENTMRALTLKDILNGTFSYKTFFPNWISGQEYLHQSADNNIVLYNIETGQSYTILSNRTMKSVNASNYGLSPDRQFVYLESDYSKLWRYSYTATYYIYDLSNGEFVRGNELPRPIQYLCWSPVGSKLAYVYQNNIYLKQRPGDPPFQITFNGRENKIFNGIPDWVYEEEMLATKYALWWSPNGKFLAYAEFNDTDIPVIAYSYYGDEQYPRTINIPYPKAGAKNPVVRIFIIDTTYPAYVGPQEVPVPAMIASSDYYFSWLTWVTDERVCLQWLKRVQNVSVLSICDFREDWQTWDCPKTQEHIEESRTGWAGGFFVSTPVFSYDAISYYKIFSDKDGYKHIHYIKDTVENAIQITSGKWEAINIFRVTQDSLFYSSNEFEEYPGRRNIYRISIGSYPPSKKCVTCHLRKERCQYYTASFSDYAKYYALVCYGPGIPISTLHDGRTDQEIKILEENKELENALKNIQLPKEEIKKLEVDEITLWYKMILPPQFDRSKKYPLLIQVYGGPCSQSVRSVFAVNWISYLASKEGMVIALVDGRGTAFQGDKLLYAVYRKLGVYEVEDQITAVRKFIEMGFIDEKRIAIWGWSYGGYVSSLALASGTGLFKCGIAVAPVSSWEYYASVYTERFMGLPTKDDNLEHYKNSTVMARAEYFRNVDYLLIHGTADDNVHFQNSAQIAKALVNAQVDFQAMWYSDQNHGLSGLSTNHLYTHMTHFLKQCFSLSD
Method in brief: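 Recombinant human FAP, 10 ng per reaction, in 50 mM HEPES pH 7.2 with 150 mM NaCl, 0.1 mg/ml BSA, 1 mM EDTA; HyLite Fluor 488/QXL 520 FRET peptide of human FGF21 sequence at 6 μM final, ≤0.1% DMSO, 37° C. IC50 from 8-point curves by four-parameter logistic fit.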

recombinant human DPP8 = target: T6, recombinant human DPP8 (Homo sapiens, UniProt Q6V1X1); experiment: DPP8 inhibition, fluorogenic substrate Z-Ala-Pro-AMC; format: biochemical; settings: recombinant human DPP8
T6 construct: purchased PBS Bioscience
Method in brief: as §1

DPP4 [2] = target: T2, DPP4; settings: cited from earlier work
Target sequence in this assay (P27487 whole entry, species assumed): as the sequence (P27487 whole entry) above

tumors = settings: orally administered, mice; cited from earlier work

T3 sequence (Q86TI2 whole entry): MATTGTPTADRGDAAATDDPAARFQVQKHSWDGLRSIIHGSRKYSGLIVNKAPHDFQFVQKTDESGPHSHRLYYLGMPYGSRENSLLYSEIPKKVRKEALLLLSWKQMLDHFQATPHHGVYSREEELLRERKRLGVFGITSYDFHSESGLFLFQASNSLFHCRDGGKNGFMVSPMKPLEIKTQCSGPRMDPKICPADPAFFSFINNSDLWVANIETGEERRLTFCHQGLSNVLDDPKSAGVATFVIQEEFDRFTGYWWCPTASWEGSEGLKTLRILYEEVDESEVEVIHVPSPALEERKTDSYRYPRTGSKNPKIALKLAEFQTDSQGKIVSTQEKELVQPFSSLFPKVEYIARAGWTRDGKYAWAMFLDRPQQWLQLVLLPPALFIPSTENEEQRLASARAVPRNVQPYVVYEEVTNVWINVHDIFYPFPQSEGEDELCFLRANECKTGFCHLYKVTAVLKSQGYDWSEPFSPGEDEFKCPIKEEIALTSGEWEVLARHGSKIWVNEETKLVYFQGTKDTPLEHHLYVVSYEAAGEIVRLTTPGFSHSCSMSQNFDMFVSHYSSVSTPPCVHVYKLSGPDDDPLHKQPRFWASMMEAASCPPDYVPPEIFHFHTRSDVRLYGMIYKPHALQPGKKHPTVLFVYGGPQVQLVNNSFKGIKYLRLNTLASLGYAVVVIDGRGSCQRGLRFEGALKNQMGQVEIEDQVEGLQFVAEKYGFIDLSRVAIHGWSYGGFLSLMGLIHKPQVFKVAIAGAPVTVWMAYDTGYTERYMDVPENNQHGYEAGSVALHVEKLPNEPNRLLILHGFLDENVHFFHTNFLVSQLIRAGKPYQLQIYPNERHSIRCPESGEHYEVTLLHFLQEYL
T6 sequence (Q6V1X1 whole entry): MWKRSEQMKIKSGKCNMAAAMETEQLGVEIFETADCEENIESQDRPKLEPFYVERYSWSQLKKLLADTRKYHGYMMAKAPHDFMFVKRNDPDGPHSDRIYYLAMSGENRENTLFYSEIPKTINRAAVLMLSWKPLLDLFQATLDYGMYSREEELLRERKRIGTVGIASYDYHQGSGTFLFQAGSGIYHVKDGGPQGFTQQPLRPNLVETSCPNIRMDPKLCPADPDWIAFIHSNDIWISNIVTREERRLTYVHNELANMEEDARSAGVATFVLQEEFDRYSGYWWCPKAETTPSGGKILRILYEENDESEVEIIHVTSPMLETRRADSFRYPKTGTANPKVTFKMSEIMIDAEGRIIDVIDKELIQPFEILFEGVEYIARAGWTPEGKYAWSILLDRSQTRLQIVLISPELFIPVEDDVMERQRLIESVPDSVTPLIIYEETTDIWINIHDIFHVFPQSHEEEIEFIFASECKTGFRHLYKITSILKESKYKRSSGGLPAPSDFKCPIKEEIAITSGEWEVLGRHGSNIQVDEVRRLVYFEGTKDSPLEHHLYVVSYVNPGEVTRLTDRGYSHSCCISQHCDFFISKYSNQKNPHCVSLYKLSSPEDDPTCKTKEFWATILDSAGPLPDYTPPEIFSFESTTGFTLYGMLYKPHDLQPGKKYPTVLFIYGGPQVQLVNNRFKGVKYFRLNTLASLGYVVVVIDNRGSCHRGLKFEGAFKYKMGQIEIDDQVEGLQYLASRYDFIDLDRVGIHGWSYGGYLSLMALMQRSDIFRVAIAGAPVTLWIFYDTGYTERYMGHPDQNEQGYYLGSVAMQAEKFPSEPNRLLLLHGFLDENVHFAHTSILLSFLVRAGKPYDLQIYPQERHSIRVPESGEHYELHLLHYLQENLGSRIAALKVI

Compound	IC50 (recombinant human DPP7) [µM]	IC50 (DPP4 [1]) [µM]	IC50 (recombinant human DPP9) [µM]	IC50 (recombinant human PREP) [nM]	IC50 (Recombinant human FAP) [µM]	IC50 (recombinant human DPP8) [µM]	DPP4 inhibitory activity (DPP4 [2])	anticancer activities (tumors)
N#C[C@@H]1C[C@H](F)CN1C(=O)CN1CCC(Oc2ccnc3cc(F)ccc23)CC1 [Example 433, (2S,4S)-4-fluoro-1-[2-[4-[(7-fluoro-4-quinolyl)oxy]-1-piperidyl]acetyl]pyrrolidine-2-carbonitrile]	3.07	5.68	3.89	98	0.0051	3.06	–	–
N#Cc1cccc2c(OC3CCN(CC(=O)N4C[C@@H](F)C[C@H]4C#N)CC3)ccnc12 [Example 434, 4-[[1-[2-oxo-2-[(2S,4S)-2-cyano-4-fluoro-pyrrolidin-1-yl]ethyl]-4-piperidyl]oxy]quinoline-8-carbonitrile]	4.31	2.44	4.51	395	0.0036	2.74	–	–
Cc1cc(OC2CCN(CC(=O)N3C[C@@H](F)C[C@H]3C#N)CC2)c2ccccc2n1 [Example 436, (2S,4S)-4-fluoro-1-[2-[4-[(2-methyl-4-quinolyl)oxy]-1-piperidyl]acetyl]pyrrolidine-2-carbonitrile]	8.51	9.04	18.2	555	0.0111	11.7	–	–
Cc1cc(OC2CCN(CC(=O)N3C[C@@H](F)C[C@H]3C#N)CC2)c2cc(F)ccc2n1 [Example 437, (2S,4S)-4-fluoro-1-[2-[4-[(6-fluoro-2-methyl-4-quinolyl)oxy]-1-piperidyl]acetyl]pyrrolidine-2-carbonitrile]	6.26	4.49	17.4	454	0.0018	4.15	–	–
COc1cccc2c(OC3CCN(CC(=O)N4C[C@@H](F)C[C@H]4C#N)CC3)ccnc12 [Example 438, (2S,4S)-4-fluoro-1-[2-[4-[(8-methoxy-4-quinolyl)oxy]-1-piperidyl]acetyl]pyrrolidine-2-carbonitrile]	3.58	5.67	5.97	156	0.0077	3.38	–	–
Cc1cccc2c(OC3CCN(CC(=O)N4C[C@@H](F)C[C@H]4C#N)CC3)ccnc12 [Example 439, (2S,4S)-4-fluoro-1-[2-[4-[(8-methyl-4-quinolyl)oxy]-1-piperidyl]acetyl]pyrrolidine-2-carbonitrile]	3.11	6.31	5.46	75	0.0037	2.7	–	–
CC(C)[C@H](N)C(=O)N1CCC[C@H]1B(O)O [Val-boroPro, Talabostat]	–	–	–	–	–	–	inhibitory activity	–
CC(C)[C@H](N)C(=O)N1CCC[C@H]1B(O)O [ValboroPro, Val-boroPro]	–	–	–	–	–	–	–	exhibits anticancer activities in mice by delaying the proliferation of tumors and inducing the degeneration of tumors

Reference: US11655235B2, “Pyrrolidine and piperidine compounds” (YUHAN CORPORATION, priority 2019, dated 2023)
